Source: PubChem BioAssay (NCI)
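96-well plates; 48 h exposure; 5 concentrations. Endpoints by linear interpolation between flanking doses. Not reached: highest tested concentration assigned. GI50: concentration for 50% inhibition of growth. TGI denotes the concentration required for complete inhibition of growth.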

Test system: HL-60(TB) leukemia
Experiment: growth of human tumour cells (NCI), 48 h

`Cc1c(N2CCOCC2)nc2ccc(Cl)cc2c1-c1ccccc1` and `COc1ccc(C2Oc3ccc(Cl)cc3C=C2[N+](=O)[O-])cc1` (stereo unspecified) cannot be ordered by TGI: over 100 µM for the first, over 100 µM for the second.

`Cc1cc([N+](=O)[O-])c(C)c2c1[nH]c1ccc(Cl)cc12` and `CC(=O)NNc1nc(C)c(C(=O)NNC(=O)C(=O)Nc2ccc([N+](=O)[O-])cc2[N+](=O)[O-])s1` cannot be ordered by TGI: over 100 µM for the first, over 100 µM for the second.

Going from `COCOc1ccc(C(=O)Oc2cccc3c2OC(C)(C)O3)c(OCOC)c1` to `COc1cccc(C2c3cc4c(cc3OC(O)C2C)OCO4)c1OC` (stereo unspecified), the TGI falls from 19 µM to 4.83 µM (3.9-fold).

`NCCN1CCCCCc2ccccc21` and `CN(CCN1CCCC1)C1CCc2cc(Cl)c(Cl)cc2C1` (stereo unspecified) cannot be ordered by TGI: over 10 µM for the first, 37.4 µM for the second.

`CO/N=C1\CC(NC(=O)C(F)(F)F)c2ccsc21` (stereo unspecified) and `CCOC(=O)C1C(c2ccc(Cl)cc2Cl)NC(c2ccc(C)cc2)C(C(=O)OC)S1(=O)=O` (stereo unspecified) cannot be ordered by TGI: over 100 µM for the first, over 100 µM for the second.

Going from `COC(=O)/C=C(\C)CC/C=C(\C)CCC1OC1(C)C` (stereo unspecified) to `CCOC(=O)/C=C/c1nc(C#N)c(N)o1`, the TGI rises from 6.6 µM to over 100 µM.

`COc1ccc(CNc2cnc3ccc(N)cc3n2)cc1` and `COc1cc2ccc3c4cc(OC)c(OC)cc4c[n+](C)c3c2cc1O` cannot be ordered by TGI: over 100 µM for the first, over 100 µM for the second.

Going from `CN(C)CCNC(=O)c1cccc2c1Nc1ccccc1S2` to `CN(/N=C1\C(=O)Nc2ccccc21)c1ccccc1`, the TGI rises from 19.2 µM to over 100 µM.

Test system: HOP-92 NSCLC
Experiment: growth of human tumour cells (NCI), 48 h

Compared with `CN(C)c1nc(Oc2nc(N(C)C)nc(N(C)C)n2)nc(N(C)C)n1`, `COc1cccc(C2c3cc4c(cc3OC(O)C2C)OCO4)c1OC` (stereo unspecified) is lower in TGI: over 100 µM for the first, 8.55 µM for the second.

First: CCCCCCCC(=O)OCC(COC(=O)C(C)(C)C)OC(=O)Cc1ccccc1 (stereo unspecified)
Second: COC(=O)CC(=O)OSc1ccccc1
The TGI of the first is higher: over 100 µM for the first, 67.9 µM for the second.

`Cc1nnc2n(c1=O)CCCN2C` and `CN(C)C(=O)C(F)(F)C(c1ccc(F)cc1)C1C(=O)N(C)C(=O)N(C)C1=O` (stereo unspecified) cannot be ordered by TGI: over 100 µM for the first, over 100 µM for the second.

`S=C(Cc1ccc2c(c1)Sc1ccccc1O2)N1CCOCC1` and `Cc1c(N2CCOCC2)nc2ccc(Cl)cc2c1-c1ccccc1` cannot be ordered by TGI: over 100 µM for the first, over 100 µM for the second.

First: c1ccc2c(c1)SCCCS2
Second: CN(C)CCNC(=O)c1cccc2c1Nc1ccccc1S2
The TGI of the first is higher: over 100 µM for the first, 8.96 µM for the second.

Going from `Cn1nc(-c2ccc(S(=O)(=O)/N=C(\NN)Nc3ccc(Cl)cc3)s2)cc1C(F)(F)F` to `CCOC(=O)C1C(c2ccc(Cl)cc2Cl)NC(c2ccc(C)cc2)C(C(=O)OC)S1(=O)=O` (stereo unspecified), the TGI rises from 40.2 µM to over 100 µM.

`COc1cc(C)c(CC/C(C)=C/Cc2cc(O)ccc2O)c(C)c1C` and `COc1cc2ccc3c4cc(OC)c(OC)cc4c[n+](C)c3c2cc1O` cannot be ordered by TGI: over 25 µM for the first, over 100 µM for the second.

`O=c1[nH]c(NCc2ccncc2)nc2nc[nH]c12` and `CN(/N=C1\C(=O)Nc2ccccc21)c1ccccc1` cannot be ordered by TGI: over 100 µM for the first, over 100 µM for the second.

First: COCOc1ccc(C(=O)Oc2cccc3c2OC(C)(C)O3)c(OCOC)c1
Second: COc1cc2nc(-c3ccc(Cl)cc3)cc(OCCCN3CCOCC3)c2cc1OC
The TGI of the first is higher: over 100 µM for the first, 5.17 µM for the second.

`CO/N=C1\CC(NC(=O)C(F)(F)F)c2ccsc21` (stereo unspecified) and `CCOC(=O)/C=C/c1nc(C#N)c(N)o1` cannot be ordered by TGI: over 100 µM for the first, over 100 µM for the second.

Compared with `COC(=O)/C=C(\C)CC/C=C(\C)CCC1OC1(C)C` (stereo unspecified), `CC(=O)NNc1nc(C)c(C(=O)NNC(=O)C(=O)Nc2ccc([N+](=O)[O-])cc2[N+](=O)[O-])s1` is higher in TGI: 22.8 µM for the first, over 100 µM for the second.

In the case of `COc1cc2nc(-c3ccc(Cl)cc3)cc(OCCCN3CCOCC3)c2cc1OC`, the GI50 is reported as 1.36 µM.

Test system: LOX IMVI melanoma
Experiment: growth of human tumour cells (NCI), 48 h

`COc1ccc2ccc3oc(=O)c(C)cc3c2c1` and `COc1ccc(C2Oc3ccc(Cl)cc3C=C2[N+](=O)[O-])cc1` (stereo unspecified) cannot be ordered by TGI: over 100 µM for the first, over 100 µM for the second.

`CN(C)c1nc(Oc2nc(N(C)C)nc(N(C)C)n2)nc(N(C)C)n1` and `Cc1ccccc1-c1nc2c(N)nc(N)nc2nc1N` cannot be ordered by TGI: over 100 µM for the first, over 100 µM for the second.

Going from `CCCCCCCC(=O)OCC(COC(=O)C(C)(C)C)OC(=O)Cc1ccccc1` (stereo unspecified) to `COC(=O)CC(=O)OSc1ccccc1`, the TGI falls from over 100 µM to 26.9 µM.

Compared with `Cc1nnc2n(c1=O)CCCN2C`, `CN(CCN1CCCC1)C1CCc2cc(Cl)c(Cl)cc2C1` (stereo unspecified) is lower in TGI: over 100 µM for the first, 29.7 µM for the second.

`Nc1ncnc2c1nnn2C1C=CC(CP(=O)(O)O)C1` (stereo unspecified) and `O=c1[nH]c(NCc2ccncc2)nc2nc[nH]c12` cannot be ordered by TGI: over 100 µM for the first, over 100 µM for the second.

First: CN(C)CCn1c(=O)c2ccc(NCCCN(C)CCCNc3ccc4c(=O)n(CCN(C)C)c(=O)n5c6ccc(O)cc6c(=O)c3c45)c3c(=O)c4cc(O)ccc4n(c1=O)c23
Second: CN(C)C(=O)C(F)(F)C(c1ccc(F)cc1)C1C(=O)N(C)C(=O)N(C)C1=O (stereo unspecified)
The TGI of the first is lower: 0.0619 µM for the first, over 100 µM for the second.

`S=C(Cc1ccc2c(c1)Sc1ccccc1O2)N1CCOCC1` and `Cc1c(N2CCOCC2)nc2ccc(Cl)cc2c1-c1ccccc1` cannot be ordered by TGI: over 100 µM for the first, over 100 µM for the second.

`c1ccc2c(c1)SCCCS2` and `NCCN1CCCCCc2ccccc21` cannot be ordered by TGI: over 100 µM for the first, over 10 µM for the second.

Compared with `COc1ccc2c(c1)c1c(n2CCN2CCCCC2)-c2cccc(OC)c2CC1`, `COc1cc2nc(-c3ccc(Cl)cc3)cc(OCCCN3CCOCC3)c2cc1OC` is 65-fold lower in TGI: 38.7 µM for the first, 0.593 µM for the second.

`O=[N+]([O-])c1ccc(C[P+]2(c3ccccc3)CCCCC2)cc1` and `CN(/N=C1\C(=O)Nc2ccccc21)c1ccccc1` cannot be ordered by TGI: over 100 µM for the first, over 100 µM for the second.

Going from `Cn1nc(-c2ccc(S(=O)(=O)/N=C(\NN)Nc3ccc(Cl)cc3)s2)cc1C(F)(F)F` to `CCOC(=O)C1C(c2ccc(Cl)cc2Cl)NC(c2ccc(C)cc2)C(C(=O)OC)S1(=O)=O` (stereo unspecified), the TGI rises from 34.2 µM to over 100 µM.

Compared with `C[C@]12CCC3[C@@H](CCC45OC4C(=O)CC[C@]35C)C1Cc1cnn(-c3ccc(F)cc3)c1N2` (stereo partly specified), `COCOc1ccc(C(=O)Oc2cccc3c2OC(C)(C)O3)c(OCOC)c1` is higher in TGI: 31.9 µM for the first, over 100 µM for the second.

First: c1c[nH]c(-c2cccc3nsnc23)c1
Second: CN(C)CCNC(=O)c1cccc2c1Nc1ccccc1S2
The TGI of the first is higher: over 100 µM for the first, 26.2 µM for the second.

`Cc1cc([N+](=O)[O-])c(C)c2c1[nH]c1ccc(Cl)cc12` and `CC(=O)NNc1nc(C)c(C(=O)NNC(=O)C(=O)Nc2ccc([N+](=O)[O-])cc2[N+](=O)[O-])s1` cannot be ordered by TGI: over 100 µM for the first, over 100 µM for the second.

Compared with `CO/N=C1\CC(NC(=O)C(F)(F)F)c2ccsc21` (stereo unspecified), `COc1cccc(C2c3cc4c(cc3OC(O)C2C)OCO4)c1OC` (stereo unspecified) is lower in TGI: over 100 µM for the first, 23.5 µM for the second.

Going from `COC(=O)/C=C(\C)CC/C=C(\C)CCC1OC1(C)C` (stereo unspecified) to `CCOC(=O)/C=C/c1nc(C#N)c(N)o1`, the TGI rises from 11 µM to over 100 µM.

`COc1ccc(CNc2cnc3ccc(N)cc3n2)cc1` and `COc1cc2ccc3c4cc(OC)c(OC)cc4c[n+](C)c3c2cc1O` cannot be ordered by TGI: over 100 µM for the first, over 100 µM for the second.

`COc1cc2nc(-c3ccc(Cl)cc3)cc(OCCCN3CCOCC3)c2cc1OC` was tested, and the GI50 was 0.217 µM.

Test system: NCI-H23 lung
Experiment: growth of human tumour cells (NCI), 48 h

`COc1ccc2ccc3oc(=O)c(C)cc3c2c1` and `CN(C)c1nc(Oc2nc(N(C)C)nc(N(C)C)n2)nc(N(C)C)n1` cannot be ordered by TGI: over 100 µM for the first, over 100 µM for the second.
